In PMC7906907, “Targeting STAT3 by a small molecule suppresses pancreatic cancer progression” (Oncogene, 2021):

Columns and labels:
[1] = biological target: His-STAT3^127-722 protein (Homo sapiens, UniProt P40763); test: Microscale thermophoresis (MST) assay, STAT3^127–722; assay type: binding; design: made in house
Source text: (§1) Fig. 3 N4 interacts with the STAT3-SH2 domain and interferes with the STAT3-EGFR and STAT3-NF-κB interactions. […] C–E The binding between N4 and STAT3 was examined in (C) SPR and (D) MST experiments. His-STAT3^127-722 protein was purified and used to examine the affinity between STAT3 and N4. (E) The binding between N4 and STAT3^SH2 was confirmed in MST assays. STAT3-SH2 protein was purified and labeled. N4 was serially diluted and mixed with equal volumes of labeled STAT3^SH2 protein. The MST signal was measured, and the data were analyzed by MO analysis software. F, G The FLAG-tag and HA-tag STAT3 expression plasmid was transfected into 293 T cells, followed by the addition of the indicated concentrations of N4. After 24 h, cells were lysed, and immunoprecipitation experiments were performed as described in Materials and Methods. H N4 represses STAT3 dimerization in pancreatic cancer cells. I After a 24 h treatment with 2 μM N4, pancreatic cancer cells were stimulated with IL-6 for 30 min. Cell lysates were immunoprecipitated with STAT3 overnight. […]
(§2) The MST assay was previously described. Binding affinities of N4 with the purified His-STAT3-SH2 were measured using the Monolith NT.115 device (NanoTemper Technologies). […] The samples were then loaded into premium capillaries (NanoTemper Technologies) and measured using the Monolith NT.115 device. […]

STAT3-SH2 = biological target: T1, STAT3-SH2 (Homo sapiens, UniProt P40763); test: Microscale thermophoresis (MST) assay, STAT3-SH2; assay type: binding
T1 construct: made in house
T1 sequence (P40763 580-670 limits assumed): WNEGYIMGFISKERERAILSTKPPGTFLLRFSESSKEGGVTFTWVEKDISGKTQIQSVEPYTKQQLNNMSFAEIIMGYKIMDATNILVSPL
Source text: as §1, §2

PANC-1 cells = test: PANC-1 shNC / shSTAT3 xenograft with drug withdrawal; assay type: in vivo, Mice
Source text: To provide further evidence that STAT3 is the direct target of N4, we constructed two STAT3 stable knockdown cell lines by the short hairpin RNA (shRNA) (Supplementary Fig. S10A), and the sequence of shRNA was list in Supplementary Table S3. […] At the meantime, the effect of drug withdrawal on tumor volume and weight was also examined. After 20 days of treatment, all the drug or vehicle were removed and the tumor was allowed to grow for another 12 days. […] Thus, N4 kept the suppression on tumor growth compared to vehicle group during the drug withdrawal period.
Supplementary Figure 10. STAT3 knockdown cells are resistant to N4 in vivo. (A) PANC-1 cells were transfected with shRNA that targeted STAT3 or negative control, and the knockdown efficiency was examined by western blot. (B) Mice bearing the PANC-1 cells within STAT3 stable knockdown (shSTAT3-1#) or negative control (shNC), and administration N4 or vehicle (control) every day by i.p. After 20 days treatment, the N4 and vehicle were removed for another 12 days. Then the mice were sacrificed and the tumor was removed and photographed (n=5 per group). (C) The tumor volume was measured every 3-4 days and the volume was calculated by the formula: length × width2 ×0.52, data are shown as mean ± SD, ****P < 0.0001 and n.s., not significant by one-way ANOVA followed by multiple-comparison tests. (D) After […]

PAN02-luc = test: Orthotopic pancreatic cancer tumor model; assay type: in vivo, C57BL/6 mice
Experimental: Fig. 7 N4 inhibits tumor growth in an orthotopic pancreatic cancer model. C57BL/6 mice were injected the tail of the pancreas with luciferase-expressing PAN02 cells (PAN02-luc) in matrigel and tumor growth was assessed (A) and quantified (B) by bioluminescent imaging weekly. Data represent the mean ± SD; *P < 0.05, **P < 0.01, ***P < 0.001, ****P < 0.0001, n.s. not significant by one-way ANOVA followed by multiple-comparison tests. (n = 5 mice per group) C After 4 weeks, mice were sacrificed and the pancreas were imaged. The tumor of pancreas were photographed (D) and weighted (E), scale bar, 0.5 cm.
Briefly, specimens of tumor tissue from xenograft models and orthotopic models were fixed with 4% paraformaldehyde solution at 4 °C overnight. […] Then, according to the manufacturer’s instructions (SK-4100; Vector laboratories), the avidin-biotin peroxidase complex was used, followed by colorimetric detection using DAB. Finally, hematoxylin was used to counterstain the sections and coverslips were mounted.
C57BL/6 mice, male, 4–6 week old were obtained from the Animal Center of East China Normal University. All animal experimental protocols were approved by the Animal Investigation Committee of the Institute of Biomedical Sciences, East China Normal University. PAN02 cells that stably expressed luciferase (PAN02-luc) were embedded in Matrigel (BD Biosciences) were injected with 5 × 10^5 in the tail of the pancreas. On the next day (day 0), the mice were subjected to bioluminescent imaging and divided into four groups according to the luciferase luminescence value. Mice were treated with intraperitoneal injection of indicated compound or drug. Tumor growth was analyzed once a week by an IVIS Imaging System (Xenogen Corporation, Alameda, CA) and end of study tumor weight was determined immediately postmortem. […] Images and measurements of bioluminescent signals were acquired and analyzed using Living Image and Xenogen software.

STAT3–EGFR interaction = biological target: T2, STAT3–EGFR interaction (Homo sapiens, UniProt P40763); test: Co-immunoprecipitation, STAT3–EGFR interaction; assay type: cell-based; settings: PANC-1 cells, 2 μM, 24 h
T2 construct: endogenous in cells; host or cells: PANC-1
T2 sequence (P40763 2-770 limits assumed): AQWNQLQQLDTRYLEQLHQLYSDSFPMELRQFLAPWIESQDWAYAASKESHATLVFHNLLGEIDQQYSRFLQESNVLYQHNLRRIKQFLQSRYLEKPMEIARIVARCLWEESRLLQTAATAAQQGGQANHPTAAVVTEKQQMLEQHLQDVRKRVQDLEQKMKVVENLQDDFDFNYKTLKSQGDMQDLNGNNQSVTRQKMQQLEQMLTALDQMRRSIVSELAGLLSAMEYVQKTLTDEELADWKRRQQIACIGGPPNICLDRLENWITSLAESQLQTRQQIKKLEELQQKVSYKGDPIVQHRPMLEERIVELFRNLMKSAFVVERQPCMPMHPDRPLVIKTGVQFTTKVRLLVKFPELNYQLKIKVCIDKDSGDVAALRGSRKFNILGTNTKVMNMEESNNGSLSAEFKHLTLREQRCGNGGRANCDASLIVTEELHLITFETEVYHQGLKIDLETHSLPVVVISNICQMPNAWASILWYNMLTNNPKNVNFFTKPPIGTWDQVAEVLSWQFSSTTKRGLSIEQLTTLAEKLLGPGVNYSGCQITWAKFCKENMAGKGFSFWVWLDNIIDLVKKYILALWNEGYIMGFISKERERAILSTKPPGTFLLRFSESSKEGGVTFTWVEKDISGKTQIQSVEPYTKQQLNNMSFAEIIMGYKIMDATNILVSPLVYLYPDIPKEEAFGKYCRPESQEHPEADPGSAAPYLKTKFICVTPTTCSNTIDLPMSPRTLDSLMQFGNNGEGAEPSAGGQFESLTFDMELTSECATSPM
Source text: as §1, with “overnight. The precipitates were washed, suspended in non-reducing sample buffer, and boiled for 10 min. The indicated antibodies were used for western blot assays.” for “overnight.”
Co-IP was performed as previously described. […] After overnight incubation, the precipitates were washed and analyzed using western blotting.

Sequence of His-STAT3^127-722 protein (P40763 127-722): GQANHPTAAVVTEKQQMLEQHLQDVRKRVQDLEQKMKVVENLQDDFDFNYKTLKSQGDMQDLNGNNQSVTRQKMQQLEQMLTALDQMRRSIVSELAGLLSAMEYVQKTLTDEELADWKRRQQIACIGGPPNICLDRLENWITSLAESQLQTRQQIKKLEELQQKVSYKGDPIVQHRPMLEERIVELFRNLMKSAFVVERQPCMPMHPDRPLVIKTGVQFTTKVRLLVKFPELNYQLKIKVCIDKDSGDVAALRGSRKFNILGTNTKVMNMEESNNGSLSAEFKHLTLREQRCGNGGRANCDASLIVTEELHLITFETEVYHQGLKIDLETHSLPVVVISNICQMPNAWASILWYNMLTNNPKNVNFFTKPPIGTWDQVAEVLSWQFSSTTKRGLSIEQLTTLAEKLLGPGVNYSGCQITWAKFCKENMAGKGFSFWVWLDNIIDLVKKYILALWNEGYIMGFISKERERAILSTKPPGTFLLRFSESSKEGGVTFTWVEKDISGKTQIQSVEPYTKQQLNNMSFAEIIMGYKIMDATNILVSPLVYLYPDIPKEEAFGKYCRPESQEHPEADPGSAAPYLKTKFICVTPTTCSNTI

COc1cc2c(cc1C(=O)Nc1cccc3cccnc13)CCC1C(C)(C)C(=O)C(C#N)=C[C@]21C (some centres unmarked) [N4]
Kd ([1]; STAT3^127-722, value printed in figure): 2020 nM | Kd ([1]; STAT3^127–722): 2020 nM | Kd (STAT3-SH2): 1010 nM | sensitivity of STAT3 stable knockdown cells to treatment (PANC-1 cells; compared with control cells): not sensitive | increase in tumor volume during the drug withdrawal period (PANC-1 cells; shNC-N4 group, 20 days treatment i.p., then 12 days withdrawal): 249.49 mm^3 | expression of stromal cells marker α-SMA in vivo (PAN02-luc; IHC of tumor tissue): drastically suppressed | expression of vimentin in vivo (PAN02-luc; IHC of tumor tissue): significantly suppressed | number of TAM (F4/80+ macrophages) (PAN02-luc; IHC of tumor tissue): significantly decreased | tumor volume suppressed compared with the control group (PAN02-luc; week 4, 10 mg/kg/d): 97.34% | tumor volume suppressed compared with the control group (PAN02-luc; week 4, 20 mg/kg/d): 98.88% | STAT3–EGFR interaction (STAT3–EGFR interaction): inhibited
